{"source": "patent US20060269491A1", "about": "“UVA (> 360-400) and UVB (300-325) specific sunscreens” (priority 2000, published 2006)", "experiment": "UV absorbance of sunscreen compositions (FIG. 9)", "format": "physicochemical", "source_text": "FIG. 9 depicts the UV absorbance of two specific suncreen compositions.\nThus, to adequately protect human skin from the UV-induced enzymes that degrade the collagen matrix, and which inhibit collagen biosynthesis, a sunscreen formulation must block both radiation of less then 325 nm and that between about 360 nm and 400 nm. In our prior application Ser. No. 09/089,914, we proposed a sunscreen comprising a UVB blocker such as PARSOL MCX and a UVA blocker such as PARSOL 1789. Other UVB blockers known in the art, and in light of the information provided herein, are also suitable. However, various UVA blockers, including PARSOL 1789 and various others such as TINOSORB brand blockers (available from Ciba, Basel, Switzerland) are relatively broadband blockers and while blocking some of the UVA radiation in the >360-400 nm range, are not optimized for that region. […] As noted above, these wavelengths are greater than the 360 nm the industry desires to block with its compounds, because it is generally believed that a broad band absorber will provide the desired blocking effects. To the contrary, we have shown that it is sufficient to block narrow bands of UV radiation, namely 295-325 nm in the UVB, more preferably 305-325 nm, and those wavelengths above 360 nm in the UVA, and that blocking these wavelengths achieves the desired prevention of UV-induced […] of MMPs in human skin.", "data": [{"smiles": "COc1ccc(C(=O)CC(=O)c2ccc(C(C)(C)C)cc2)cc1", "note": "[PARSOL 1789]", "values": [{"measurement": "UV absorbance", "setting": "UVA1 area of 340-360 nm", "result": "appears adequate"}, {"measurement": "UV absorbance", "setting": "area of 390-400 nm", "result": "almost no absorbance"}, {"measurement": "UV absorbance", "setting": "at 370 nm", "result": "falls off"}, {"measurement": "UV absorbance", "setting": "to 380 nm", "result": "falls off dramatically"}]}]}
